Measurements reported in patent US8309558B2, “Compounds for the treatment of hepatitis C” (Bristol-Myers Squibb Company, priority 2008, dated 2012).
Like-named read-outs stand apart in the source and are kept apart here.

How the values were obtained:
[1] = target: T1, HCV NS5B RdRp genotype 1b (Hepatitis C virus genotype 1b, UniProt Q9WMX2); experiment: Standard HCV NS5B RdRp enzyme assay; assay type: biochemical; conditions: HCV NS5B RdRp genotype 1b, read-out: IC50
T1 construct: The protein was expressed with an 18 amino acid C-terminal truncation to enhance the solubility; made in house; host or cells: E. coli BL21(DE3), pET21a vector
T1 sequence (Q9WMX2 2420-2992): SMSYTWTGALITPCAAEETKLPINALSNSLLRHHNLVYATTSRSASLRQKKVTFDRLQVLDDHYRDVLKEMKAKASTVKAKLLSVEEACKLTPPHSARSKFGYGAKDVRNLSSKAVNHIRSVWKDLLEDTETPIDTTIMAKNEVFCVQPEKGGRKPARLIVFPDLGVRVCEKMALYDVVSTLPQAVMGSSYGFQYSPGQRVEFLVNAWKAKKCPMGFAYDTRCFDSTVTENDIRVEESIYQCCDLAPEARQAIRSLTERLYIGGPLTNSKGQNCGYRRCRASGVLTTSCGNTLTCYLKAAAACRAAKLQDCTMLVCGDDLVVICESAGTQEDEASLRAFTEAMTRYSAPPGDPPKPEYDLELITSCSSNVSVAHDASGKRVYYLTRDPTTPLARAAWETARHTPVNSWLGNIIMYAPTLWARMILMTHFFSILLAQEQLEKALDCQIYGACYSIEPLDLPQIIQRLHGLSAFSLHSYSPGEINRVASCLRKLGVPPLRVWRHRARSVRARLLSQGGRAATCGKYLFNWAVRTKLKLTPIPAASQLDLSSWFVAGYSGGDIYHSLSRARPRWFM
Procedure, shortened: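 C-terminally truncated (18 aa) genotype 1b NS5B from E. coli, 28 nM, with 6 nM polyA template, 180 nM biotinylated oligo-dT12 primer and 3H-UTP (0.29 μM total UTP). Hepes pH 7.5 buffer with 2% DMSO; 60 min at 30° C. EDTA stop, SPA read-out; IC50 from seven concentrations by four-parameter fit.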

HCV replicon cells = experiment: HCV replicon FRET / luciferase assay (96-well plates); assay type: cell-based; conditions: Hepatitis C virus, HCV replicon, read-out: EC50
Procedure, shortened: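 Replicon cells (with or without Renilla luciferase reporter) incubated with titrated compounds at 37 °C; Alamar blue read for cytotoxicity first. NS3 protease activity read kinetically with 20 μM EDANS/DABCYL FRET peptide in lysis reagent plus 150 mM NaCl (ex 340/em 490), or by Dual-Glo luciferase. EC50 = 50% signal reduction after protease-inhibitor background subtraction.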

## CNC(=O)c1c(-c2ccc(F)cc2)oc2cc([N+](=O)[O-])c(-c3cccc(C(=O)NCC(C)C)c3)cc12
[1]; Table 1b
  IC50: < 0.25 µM
HCV replicon cells; Table 1b
  EC50: < 0.25 µM

## CNC(=O)c1c(-c2ccc(F)cc2)oc2ccc(-c3cc(C(=O)NCC(C)C)ccc3OC3CCCC3)cc12
[1]; Table 1b
  IC50: > 10 µM
HCV replicon cells; Table 1b
  EC50: 1 to 10 µM

## CNC(=O)c1c(-c2ccc(F)cc2)oc2ccc(-c3ccc(F)c(C(=O)NC(C)(C)C)c3)cc12
[1]; Table 1b
  IC50: < 0.25 µM
HCV replicon cells; Table 1b
  EC50: < 0.25 µM

## CNC(=O)c1c(-c2ccc(F)cc2)oc2cc(NS(C)(=O)=O)c(-c3cc(C(=O)NCC(C)C)ccc3OC)cc12
[1]; Table 1b
  IC50: < 0.25 µM
HCV replicon cells; Table 1b
  EC50: < 0.25 µM

## CNC(=O)c1c(-c2ccc(F)cc2)oc2ccc(-c3cccc(-c4nc(-c5ccccc5)c[nH]4)c3)cc12
[1]; Table 1b
  IC50: 0.25 to 1 µM
HCV replicon cells; Table 1b
  EC50: < 0.25 µM

## CNC(=O)c1c(-c2ccc(F)cc2)oc2ccc(-c3cccc(C(=O)NC(C)(C)C(=O)Nc4nncs4)c3)cc12
[1]; Table 1b
  IC50: < 0.25 µM
HCV replicon cells; Table 1b
  EC50: < 0.25 µM

## CNC(=O)c1c(-c2ccc(F)cc2)oc2ccc(-c3cccc(-c4ccn[nH]4)c3)cc12
[1]; Table 1b
  IC50: 1 to 10 µM
HCV replicon cells; Table 1b
  EC50: 1 to 10 µM

## CNC(=O)c1c(-c2ccc(F)cc2)oc2ccc(-c3cccc(-c4ccnn4Cc4ccccc4)c3)cc12
[1]; Table 1b
  IC50: < 0.25 µM
HCV replicon cells; Table 1b
  EC50: < 0.25 µM

## CNC(=O)c1c(-c2ccc(F)cc2)oc2ccc(-c3c(C)ccc(C(=O)O)c3OC)cc12
[1]; Table 1b
  IC50: 1 to 10 µM
HCV replicon cells; Table 1b
  EC50: > 10 µM

## CNC(=O)c1c(-c2ccc(F)cc2)oc2ccc(-c3cccc(C(=O)NC(C)(C)C(=O)Nc4cc(C)[nH]n4)c3)cc12
[1]; Table 1b
  IC50: < 0.25 µM
HCV replicon cells; Table 1b
  EC50: < 0.25 µM

## CNC(=O)c1c(-c2ccc(F)cc2)oc2ccc(-c3cccc(C(=O)NC(C)(C)C(=O)Nc4cc(C)no4)c3)cc12
[1]; Table 1b
  IC50: < 0.25 µM
HCV replicon cells; Table 1b
  EC50: < 0.25 µM

## CNC(=O)c1c(-c2ccc(F)cc2)oc2ccc(-c3cccc(C(=O)NC(C)(C)C(=O)Nc4cc(C)on4)c3)cc12
[1]; Table 1b
  IC50: < 0.25 µM
HCV replicon cells; Table 1b
  EC50: < 0.25 µM

## CNC(=O)c1c(-c2ccc(F)cc2)oc2ccc(-c3cccc(C(=O)NC(C)(C)C(=O)Nc4nccnn4)c3)cc12
[1]; Table 1b
  IC50: < 0.25 µM
HCV replicon cells; Table 1b
  EC50: < 0.25 µM

## CCC(NC(=O)c1ccc(F)c(-c2cc3c(C(=O)NC)c(-c4ccc(F)cc4)oc3cc2N)c1)c1ccccc1 (stereo not drawn)
[1]; Table 1b
  IC50: < 0.25 µM
HCV replicon cells; Table 1b
  EC50: < 0.25 µM

## CNC(=O)c1c(-c2ccc(F)cc2)oc2ccc(-c3cccc(C(=O)O)c3OC)cc12
[1]; untitled table after Table 1b
  IC50: 4.75 µM
HCV replicon cells; untitled table after Table 1b, values without asterisk
  EC50: 13.3 µM

## CNC(=O)c1c(-c2ccc(F)cc2)oc2ccc(-c3cc(C(=O)NC4(c5cccc(C)c5)CC4)c(OC)cc3C)cc12
[1]; Table 1d (class symbols)
  IC50: 0.001 to 0.25 µM
HCV replicon cells; 24 h, Table 1d (class symbols)
  EC50: 0.001 to 0.25 µM

## CNC(=O)c1c(-c2ccc(F)cc2)oc2ccc(-c3cc(C(=O)NC4(c5cn(C)cn5)CC4)ccc3C)cc12
[1]; Table 1d (class symbols)
  IC50: < 0.02 µM
HCV replicon cells; 24 h, Table 1d (class symbols)
  EC50: 0.001 to 0.25 µM

## CNC(=O)c1c(-c2ccc(F)cc2)oc2ccc(-c3cc(C(=O)NC4(c5ncc(C)o5)CC4)ccc3C)cc12
[1]; Table 1d (class symbols)
  IC50: < 0.02 µM
HCV replicon cells; 24 h, Table 1d (class symbols)
  EC50: 0.001 to 0.25 µM

## CNC(=O)c1c(-c2ccc(F)cc2)oc2ccc(-c3cc(C(=O)NC4(c5ocnc5C)CC4)c(OC)cc3C)cc12
[1]; Table 1d (class symbols)
  IC50: 0.001 to 0.25 µM
HCV replicon cells; 24 h, Table 1d (class symbols)
  EC50: 0.001 to 0.25 µM

## CNC(=O)c1c(-c2ccc(F)cc2)oc2ccc(-c3cc(C(=O)NC4(c5ncc(C)o5)CC4)c(OC)cc3C)cc12
[1]; Table 1d (class symbols)
  IC50: < 0.02 µM
HCV replicon cells; 24 h, Table 1d (class symbols)
  EC50: 0.001 to 0.25 µM

## CNC(=O)c1c(-c2ccc(F)cc2)oc2ccc(-c3cc(C(=O)NC4(c5ccccn5)CC4)c(OCC(N)=O)cc3C)cc12
[1]; Table 1d (class symbols)
  IC50: < 0.02 µM
HCV replicon cells; 24 h, Table 1d (class symbols)
  EC50: 0.001 to 0.25 µM

## CCOc1cc(C)c(-c2ccc3oc(-c4ccc(F)cc4)c(C(=O)NC)c3c2)cc1C(=O)NC1(c2ccccn2)CC1
[1]; Table 1d (class symbols)
  IC50: 0.001 to 0.25 µM
HCV replicon cells; 24 h, Table 1d (class symbols)
  EC50: 0.001 to 0.25 µM

## CCCOc1cc(C)c(-c2ccc3oc(-c4ccc(F)cc4)c(C(=O)NC)c3c2)cc1C(=O)NC1(c2ccccn2)CC1
[1]; Table 1d (class symbols)
  IC50: 0.001 to 0.25 µM
HCV replicon cells; 24 h, Table 1d (class symbols)
  EC50: 0.001 to 0.25 µM

## CNC(=O)c1c(-c2ccc(F)cc2)oc2ccc(-c3cc(C(=O)NC4(c5ccccn5)CC4)c(OCC(C)C)cc3C)cc12
[1]; Table 1d (class symbols)
  IC50: 0.001 to 0.25 µM
HCV replicon cells; 24 h, Table 1d (class symbols)
  EC50: 0.001 to 0.25 µM

## CNC(=O)c1c(-c2ccc(F)cc2)oc2ccc(-c3cc(C(=O)NC4(c5ccccn5)CC4)c(OCC4CC4)cc3C)cc12
[1]; Table 1d (class symbols)
  IC50: 0.001 to 0.25 µM
HCV replicon cells; 24 h, Table 1d (class symbols)
  EC50: 0.001 to 0.25 µM

## CNC(=O)c1c(-c2ccc(F)cc2)oc2ccc(-c3cc(C(=O)NC4(c5ccccn5)CC4)c(OCCC(N)=O)cc3C)cc12
[1]; Table 1d (class symbols)
  IC50: < 0.02 µM
HCV replicon cells; 24 h, Table 1d (class symbols)
  EC50: 0.001 to 0.25 µM

## CNC(=O)c1c(-c2ccc(F)cc2)oc2ccc(-c3cc(C(=O)NC4(c5cnc(C)cn5)CC4)ccc3C)c(F)c12
[1]; Table 1d (class symbols)
  IC50: 0.001 to 0.25 µM
HCV replicon cells; 24 h, Table 1d (class symbols)
  EC50: 0.001 to 0.25 µM
